# Values of other authors as cited in patent publication EP0127274A2, “Esters of metronidazole and compositions containing them” (THE UPJOHN COMPANY, priority 1983, dated 1984).
# Conditions: background statement
compound,measurement,value
"Cc1ncc([N+](=O)[O-])n1CCO [metronidazole, 1-(O-hydroxyethyl)-2-methyl-5-nitroimidazole]",solubility in water,approximately 10 mg/ml
